Key:
[1] = tested on: dorsal root ganglia (DRG) neurons
Procedure: The nerve graft provides a supportive environment for axon growth. Removal of the nerve segment injures the peripheral axons of DRG neurons on one side (the “conditioning” lesion), whereas neurons on the opposite side are unaffected by the peripheral injury (“unconditioned”). At 2 weeks, a fluorescent tracer is injected 1 cm into the graft and is transported to the cell bodies of DRG neurons that are able to extend axons into the graft. The fluorescent tracer is taken up in the regenerated neurons only.
Sixty four adult male Sprague-Dawley rats (200-300 gm) were subjected to surgery under ketamine/xylazine anesthesia, as previously described (FIG. 1.) The cervical cord was exposed through a C3 laminectomy and dural opening. Using a pair of sharp jeweler's forceps, a well-defined 1 mm-deep injury was made in both posterior columns. A sciatic nerve segment harvested from the left hindlimb then was implanted at the injury site using 10-0 nylon sutures in the pia. The other end of the graft was left to lie freely under the skin.
Two weeks later, 5 μl of the retrograde tracer Fluorogold was placed into the nerve graft at a distance of 1 cm from the spinal cord. […] Rather, it is picked up solely by axons that have grown into the graft and is transported retrogradely in these axons.
Twenty four hours later, the animal was deeply anesthetized and perfused through the heart with 4% paraformaldehyde. The L5 dorsal root ganglia (DRG) were removed bilaterally, postfixed, incubated in 30% sucrose overnight, and quick frozen in Histo Prep (TM). Sections were cut at 10 μm with a cryostat, floated on pretreated glass slides, and stored at −80° C.
Animals were treated with intraperitoneal doses of (6S)-5-methyltetrahydrofolic acid ranging from 10 to 800 μg/kg, starting 3 days before the injury and given daily for 2 weeks.
Dorsal root ganglion sections were examined under a fluorescence microscope and the number of fluorescently labeled cells was counted (see FIG. 1.B). The same sections were then counterstained with cresyl violet to reveal the cell somas of all neurons in the DRG. Fluorescently labeled cells and total cells were counted in treated and control animals by an observer unaware of the treatment conditions. The percentage of labeled DRG cells in each animal was calculated. To determine neuronal numbers accurately, the method of Abercombie was used, in which only cells with visible nucleoli are counted.
The Wilcoxon rank-sum test and box-and-whiskers plots were used to compare the different groups.

[2] = tested on: dorsal root ganglia (DRG) neurons; settings: cited from earlier work
[3] = regeneration of axons into peripheral nerve grafts after damage to the spinal cord

| SMILES | percentage of conditioned DRG neurons that were fluorescently labeled ([1]; 80 ug/kg daily, 3 days before injury to 2 weeks after, with conditioning peripheral nerve lesion, mean ± SEM, n=13) | mean neurons per ganglion regenerating, treatment combined with peripheral injury ([1]; 80 ug/kg, conditioned DRG) [neurons per ganglion] | spinal regeneration, conditioned animals compared with controls, highest dose ([1]; 800 ug/kg, conditioned) | spinal regeneration, unconditioned group, highest dose ([1]; 800 ug/kg, unconditioned) | regeneration in unconditioned DRG in treated animals (FIG. 2) ([1]; 10-400 g/kg as printed, intraperitoneal daily, all treated groups except 800 ug/kg) | mean labeled neurons per ganglion, unconditioned DRG ([1]; 80 N-g/kg intraperitoneal daily, from 3 days before injury for 2 weeks, absence of peripheral nerve injury, n=13) | percentage of labeled unconditioned DRG neurons ([1]; 80 N-g/kg intraperitoneal daily, absence of peripheral nerve injury, mean ± SEM, n=13) | regeneration of conditioned DRG at doses higher or lower than 80 ug/kg ([1]; conditioned, compared with the 80 ug/kg dose) | axons per ganglion regenerating, treatment without peripheral nerve injury ([1]; optimal dose of 80 ug/kg, unconditioned) | increase in regenerative efficacy [1, 3] [%] | regeneration observed with folic acid ([2]; mean ± SEM, n=15, Iskandar, Ann Neurol. 2004) | increase in regenerative efficacy (folic acid comparison) [2, 3] |
| --- | --- | --- | --- | --- | --- | --- | --- | --- | --- | --- | --- | --- |
| CN1c2c(nc(N)[nH]c2=O)NC[C@@H]1CNc1ccc(C(=O)N[C@@H](CCC(=O)O)C(=O)O)cc1 [(6S)-5-methyltetrahydrofolic acid] | 30.68%±2.97 | 980 | decreased regeneration | no evidence of spinal regeneration | Measurable regeneration | 320 labeled neurons per ganglion | 10.25%±2.30 | less effective | approximately 319 axons per ganglion | ≥ 30 |  |  |
| Nc1nc2ncc(CNc3ccc(C(=O)N[C@@H](CCC(=O)O)C(=O)O)cc3)nc2c(=O)[nH]1 [folic acid] |  |  |  |  |  |  |  |  |  |  | 16.26%±1.12 | approximately 16% |
